Data reported in US11506660B2, “Method and system for determining equilibrium dissociation constant of a reversible binding pair” (priority 2017, dated 2022).
Where two headings read alike, the source gives them in different places.

Key:
[1] = system: α1-acid glycoprotein (AGP); settings: literature, cited from earlier work
[2] = target: T1, α1-acid glycoprotein (AGP) (Homo sapiens, UniProt P02763); assay: LSTDLPF-MS (APCI mass-spectrometry detection) Kd determination, alprenolol/AGP; type: binding; settings: α1-acid glycoprotein (AGP) in buffer, pH 7.5, Kd
T1 construct: Kd; [alprenolol]0=500 nM; 30 mM ammonium acetate p; Kd; other: MS detection
T1 sequence (P02763 19-201): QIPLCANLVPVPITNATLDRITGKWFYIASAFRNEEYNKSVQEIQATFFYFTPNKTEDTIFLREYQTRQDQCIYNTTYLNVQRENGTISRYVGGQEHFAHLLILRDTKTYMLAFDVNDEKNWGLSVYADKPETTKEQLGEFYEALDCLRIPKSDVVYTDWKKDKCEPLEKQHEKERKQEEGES
Method: The LSTDLPF-MS tandem was then used in Kd determination for a reversible binding pair of alprenolol and α1-acid glycoprotein (AGP).
MS experiments were carried out on a QTRAP 6500+ time-of-flight (Q-TOF) instrument (Sciex, Concord, ON, Canada) with a commercial Turbo V APCI ionization source. The optimal acceleration and focusing conditions were achieved by using 60 V declustering potential at 525° C. and 90 psi gas pressure. The analyses were performed in positive mode and scanned m/z 250 Da for alprenolol. The results were analyzed by using Analyst® QS 2.0 software. The propagation profiles obtained for [alprenolol]0=500 nM and varying [AGP]0 were reproducible (FIGS. 19A-19J). Experimental conditions were: internal capillary diameter=200 μm, capillary length=100 cm, flow rate of LPF=100 μL/min., loop's internal diameter=75 μm, loop's length=22.7 cm, loop's volume=1 μL; EM injection by 5 μL/min for 12 s (plug length=3.2 cm); “pre-separation” plug displacement by 5 μL/min for 12 s (3.2 cm displacement); [AGP]0 ranged from 0 to 1 mM; buffer was 30 mM ammonium acetate buffer at pH 7.5.
In this case, the screening phenomenon was characterized by enhancing signal of alprenolol with growing [AGP]0, (FIG. 16A). […] The method is also characterized by an acceptable reproducibility.

BSA [3] = target: T2, BSA (Bos taurus, UniProt P02769); assay: LSTDLPF-based Kd determination with fluorescence detection, BSA/fluorescein; type: binding, bovine
T2 sequence (P02769 25-607): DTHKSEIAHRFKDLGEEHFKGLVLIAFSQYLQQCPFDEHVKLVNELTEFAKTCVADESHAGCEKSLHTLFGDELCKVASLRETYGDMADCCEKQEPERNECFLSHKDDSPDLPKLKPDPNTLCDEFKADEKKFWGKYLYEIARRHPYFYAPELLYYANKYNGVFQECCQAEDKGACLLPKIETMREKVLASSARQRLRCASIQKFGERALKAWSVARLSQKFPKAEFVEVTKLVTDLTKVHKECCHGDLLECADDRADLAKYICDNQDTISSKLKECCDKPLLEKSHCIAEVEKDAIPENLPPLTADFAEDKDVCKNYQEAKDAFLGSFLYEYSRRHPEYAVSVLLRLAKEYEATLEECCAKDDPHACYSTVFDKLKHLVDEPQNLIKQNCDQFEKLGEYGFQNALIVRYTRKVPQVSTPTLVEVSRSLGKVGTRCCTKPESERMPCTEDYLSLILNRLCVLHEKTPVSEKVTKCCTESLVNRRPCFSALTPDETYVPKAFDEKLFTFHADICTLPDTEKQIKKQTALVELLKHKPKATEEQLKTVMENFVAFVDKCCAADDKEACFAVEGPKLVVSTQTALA
Method: In an experimental implementation of the method, LSTDLPF was carried out with flow conditions inside the capillary tube being as close to LPF as possible. It is known that LPF is distorted at the capillary entrance open to a large-volume reservoir (A. Molki, L. Khezzar, A. Goharzadeh Eur. J. Phys. 2013, 34, 1127-1134).
The system operates in the following manner. A loop 116 is utilized in order to deliver the same amount of sample consistently. […] To complete the filling of the loop, the sample 110 was introduced into the loop at 15 μL/min during 12 s (t1) by using a sample low pressure pump 126, which represents 3 times the volume of the loop (FIG. 8A). The low-pressure pump 126 may be, but is not limited to, a syringe pump or a peristaltic pump. While the loop is being filled as depicted in FIG. 8A, the capillary 108 is conditioned with the mobile phase 118 at high flow rate by using a high-pressure pump 124. This high flow rate corresponds to the flow rate utilized during the propagation and will be noted Qprop afterward.
The injection of the sample is illustrated in FIG. 8B. The positions of both valves 102 and 104 have been switched. In this configuration, the low-pressure pump 128 delivered the mobile phase 112 via the injection loop 116 which contained the sample or equilibrium mixture (EM) 110. […]

BSA [4] = target: T2, BSA; assay: LSTDLPF-MS (APCI mass-spectrometry detection) Kd determination, BSA/fluorescein; type: binding, bovine
Method: In another embodiment, the LSTDLPF setup was coupled with a mass-spectrometry (MS) detector. To facilitate complete dissociation of SM during ionization, an atmospheric pressure chemical ionization (APCI) ionization source was utilized (FIGS. 14A, 16A). The LSTDLPF-MS tandem was first used to study the same BSA/fluorescein binding pair. Experimental conditions were: internal capillary diameter=200 μm, capillary length=100 cm, flow rate of LPF=100 μL/min. loop's internal diameter=75 μm, loop's length=22.7 cm, loop's volume=1 μL, EM injection into the capillary followed by EM displacement from the capillary opening by 5 μL/min for 12 s (EM plug length=3.2 cm); “pre-separation” plug displacement by 5 μL/min for 12 s (3.2 cm displacement); [fluorescein]0=200 nM; and buffer was 30 mM ammonium acetate buffer at pH 7.5. MS experiments were carried out on a QTRAP 6500+ time-of-flight (Q-TOF) instrument (Sciex, Concord, ON, Canada) with a commercial Turbo V APCI ionization source. The optimal acceleration and focusing conditions were achieved by using 60 V declustering potential at 525° C. and 90 psi gas pressure. The analyses were performed in positive mode and scanned m/z 287 Da for fluorescein. The results were analyzed by using Analyst® QS 2.0 software.
The MS signal decreased with increasing [BSA]0 (FIG. 14A), due to the screening effect. The results presented repeatability (see FIGS. 15A-15I). Experimental conditions were: internal capillary diameter=200 μm, capillary length=100 cm, flow rate of LPF=100 μL/min. loop's internal diameter=75 μm, loop's length=22.7 cm, loop's volume=1 μL, EM injection by 5 μL/min for 12 s (plug length=3.2 cm); “pre-separation” plug displacement by 5 μL/min for 12 s (3.2 cm displacement); [fluorescein]0=200 nM; [BSA]0 ranged from 0 to 1 mM; and buffer was 30 mM ammonium acetate buffer at pH 7.5. MS experiments were carried out on a QTRAP 6500+ time-of-flight (Q-TOF) instrument (Sciex, Concord, ON, Canada) with a commercial Turbo V APCI ionization source. […] The results were analyzed by using Analyst® QS 2.0 software

BSA [5] = target: T2, BSA; settings: known value, Andersson et al. Eur. J. Biochem. 1971; cited from earlier work

Structure (SMILES) | Kd ([1]; Bao et al. ChemBioChem 2011) [µM] | Kd ([1]; Imamura et al. Chirality 2002) [µM] | Kd at 500 nM ([2]; after 2-step screening compensation (FIG. 16C), [alprenolol]0=500 nM, 30 mM ammonium acetate pH 7.5) [µM] | Kd at 500 nM ([2]; measurements performed on a different day (FIGS. 20A-20D)) [µM] | Kd (BSA [3]; single experiment, non-linear regression of isotherm with Equation 5, [fluorescein]0=200 nM, 30 mM ammonium acetate pH 7.5, error = SD of regression, read-out: Kd) [µM] | Kd (BSA [3]; triplicate experiment on three different days, error = SD of the three experiments, read-out: global Kd) [µM] | Kd (BSA [4]; after 2-step screening compensation, first experiment (FIG. 14C), [fluorescein]0=200 nM, read-out: Kd) [µM] | Kd (BSA [4]; after screening compensation, reproduced on another day (FIG. 18), read-out: Kd) [µM] | Kd (BSA [4]; weighted average of the two Kd measurements, read-out: weighted average of Kd) [µM] | Kd (BSA [5]) [µM]
C=CCc1ccccc1OCC(O)CNC(C)C (stereo not shown) [alprenolol, Alprenolol] | 2.1 ± 0.3 | 1.6 ± 0.1 | 1.8 ± 0.2 | 4.1 ± 0.8 | – | – | – | – | – | –
O=C1OC2(c3ccc(O)cc3Oc3cc(O)ccc32)c2ccccc21 [fluorescein] | – | – | – | – | 23 ± 3 | 20 ± 2 | 32 ± 4 | 24 ± 2 | 26 ± 2 | ~30
